Measured values from PubChem BioAssay AID256 (DTP/NCI, 2004).
Where “and” joins values, the source holds several entries; their conditions need not be identical. Identical values can stand only once. Inconclusive results and toxic doses are left out.

System: CD2F1 mice, L1210 leukemia ip, survival T/C
Test: NCI In Vivo Anticancer Drug Screen. Data for tumor model L1210 Leukemia (intraperitoneal) in CD2F1 (CDF1) mice
Conditions: higher = longer survival
How it was run: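 Tumor-bearing mice (transplanted tumor) were split into treated and vehicle control groups, and the measured endpoint of each treated group was divided by that of its vehicle controls.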

[1] = endpoint: mean survival time, dose: 100.0 mg/kg/injection, schedule: Q01DX009 (ip), vehicle: saline with Tween-80
[2] = endpoint: mean survival time, dose: 200.0 mg/kg/injection, schedule: Q01DX009 (ip), vehicle: saline with Tween-80
[3] = endpoint: mean survival time, dose: 400.0 mg/kg/injection, schedule: Q01DX009 (ip), vehicle: saline with Tween-80
[4] = endpoint: mean survival time, dose: 100.0 mg/kg/injection, schedule: Q04DX003 (ip), vehicle: saline with Tween-80
[5] = endpoint: mean survival time, dose: 200.0 mg/kg/injection, schedule: Q04DX003 (ip), vehicle: saline with Tween-80
[6] = endpoint: mean survival time, dose: 400.0 mg/kg/injection, schedule: Q04DX003 (ip), vehicle: saline with Tween-80

Q: Which results are given for `CCC1(O)C(=O)OCc2c1cc1n(c2=O)Cc2cc3cc4c(cc3nc2-1)OCO4` (stereo unspecified)?
A: T/C (endpoint: median survival time, dose: 1.0 mg/kg/injection, schedule: Q01DX005 (ip), vehicle: saline with Tween-80): 192 % of control; T/C (endpoint: median survival time, dose: 2.0 mg/kg/injection, schedule: Q01DX005 (ip), vehicle: saline with Tween-80): 114 % of control; T/C (endpoint: median survival time, dose: 2.0 mg/kg/injection, schedule: Q04DX002 (ip), vehicle: saline with Tween-80): 325 % of control; T/C (endpoint: median survival time, dose: 4.0 mg/kg/injection, schedule: Q01DX005 (ip), vehicle: saline with Tween-80): 101 % of control; T/C (endpoint: median survival time, dose: 4.0 mg/kg/injection, schedule: Q04DX002 (ip), vehicle: saline with Tween-80): 190 % of control and 228 % of control; T/C (endpoint: median survival time, dose: 16.0 mg/kg/injection, schedule: Q04DX002 (ip), vehicle: saline with Tween-80): 115 % of control and 124 % of control; T/C (endpoint: median survival time, dose: 32.0 mg/kg/injection, schedule: Q04DX002 (ip), vehicle: saline with Tween-80): 97 % of control

Q: `c1ccc(C2=NC3CCCCC3N=C2c2ccccc2)cc1` (stereo unspecified) was tested. Which T/C [1] did it give?
A: The T/C was 109 % of control.

Q: What about the T/C [2] of the same compound?
A: Its T/C is 113 % of control.

Q: And the T/C [3]?
A: The T/C was 103 % of control.

Q: `O=C(CCl)c1ccc(O)c(O)c1` was tested. Which T/C (endpoint: mean survival time, dose: 6.25 mg/kg/injection, schedule: Q04DX003 (ip), vehicle: saline) did it give?
A: The T/C was 94 % of control.

Q: And the T/C (endpoint: mean survival time, dose: 12.5 mg/kg/injection, schedule: Q04DX003 (ip), vehicle: saline)?
A: The T/C was 92 % of control.

Q: What about the T/C (endpoint: mean survival time, dose: 25.0 mg/kg/injection, schedule: Q04DX003 (ip), vehicle: saline) of the same compound?
A: Its T/C is 92 % of control.

Q: What does the source list for `CC1(C)C=CC(=O)c2ccccc21`?
A: T/C [4]: 94 % of control; T/C [5]: 100 % of control; T/C [6]: 101 % of control

Q: For `NC(N)=N/N=C/c1cc(Cl)cc(Cl)c1O`, which T/C (endpoint: mean survival time, dose: 18.8 mg/kg/injection, schedule: Q01DX009 (ip), vehicle: saline) is on record?
A: Its T/C is 108 % of control.

Q: What about the T/C (endpoint: mean survival time, dose: 18.8 mg/kg/injection, schedule: Q04DX003 (ip), vehicle: saline) of the same compound?
A: Its T/C is 106 % of control.

Q: What about the T/C (endpoint: mean survival time, dose: 37.5 mg/kg/injection, schedule: Q01DX009 (ip), vehicle: saline) of the same compound?
A: Its T/C is 109 % of control.

Q: What about the T/C (endpoint: mean survival time, dose: 37.5 mg/kg/injection, schedule: Q04DX003 (ip), vehicle: saline) of the same compound?
A: Its T/C is 112 % of control.

Q: What about the T/C (endpoint: mean survival time, dose: 75.0 mg/kg/injection, schedule: Q01DX009 (ip), vehicle: saline) of the same compound?
A: Its T/C is 94 % of control.

Q: And the T/C (endpoint: mean survival time, dose: 75.0 mg/kg/injection, schedule: Q04DX003 (ip), vehicle: saline)?
A: Its T/C is 114 % of control.

Q: Which T/C [4] does the source give for `Oc1ccccc1C=Nc1ccc(N=Cc2ccccc2O)cc1` here?
A: Its T/C is 88 % of control.

Q: And the T/C [5]?
A: The T/C was 91 % of control.

Q: And the T/C [6]?
A: The T/C was 100 % of control.

Q: Which T/C (endpoint: mean survival time, dose: 12.5 mg/kg/injection, schedule: Q01DX001 (ip), vehicle: saline) does the source give for `CN(C)CCCN1c2ccccc2Sc2ccc(Cl)cc21` here?
A: Its T/C is 107 % of control.

Q: And the T/C (endpoint: mean survival time, dose: 12.5 mg/kg/injection, schedule: Q01DX009 (ip), vehicle: saline with Tween-80)?
A: The T/C was 115 % of control.

Q: And the T/C (endpoint: mean survival time, dose: 25.0 mg/kg/injection, schedule: Q01DX001 (ip), vehicle: saline)?
A: Its T/C is 117 % of control.

Q: What about the T/C (endpoint: mean survival time, dose: 25.0 mg/kg/injection, schedule: Q01DX009 (ip), vehicle: saline with Tween-80) of the same compound?
A: Its T/C is 86 % of control.

Q: What about the T/C (endpoint: mean survival time, dose: 50.0 mg/kg/injection, schedule: Q01DX001 (ip), vehicle: saline) of the same compound?
A: The T/C was 120 % of control.

Q: And the T/C (endpoint: mean survival time, dose: 100.0 mg/kg/injection, schedule: Q01DX001 (ip), vehicle: saline)?
A: The T/C was 111 % of control.

Q: What about the T/C (endpoint: mean survival time, dose: 200.0 mg/kg/injection, schedule: Q04DX003 (ip), vehicle: saline) of the same compound?
A: Its T/C is 97 % of control.

Q: And the T/C (endpoint: median survival time, dose: 15.0 mg/kg/injection, schedule: Q01DX001 (ip), vehicle: water)?
A: The T/C was 118 % of control and 107 % of control.

Q: And the T/C (endpoint: median survival time, dose: 25.0 mg/kg/injection, schedule: Q01DX001 (ip), vehicle: water)?
A: The T/C was 119 % of control and 107 % of control.

Q: What about the T/C (endpoint: median survival time, dose: 30.0 mg/kg/injection, schedule: Q04DX003 (ip), vehicle: saline) of the same compound?
A: Its T/C is 80 % of control.

Q: And the T/C (endpoint: median survival time, dose: 50.0 mg/kg/injection, schedule: Q01DX001 (ip), vehicle: water)?
A: Its T/C is 114 % of control and 120 % of control.

Q: What about the T/C (endpoint: median survival time, dose: 60.0 mg/kg/injection, schedule: Q04DX003 (ip), vehicle: saline) of the same compound?
A: Its T/C is 80 % of control.

Q: And the T/C (endpoint: median survival time, dose: 75.0 mg/kg/injection, schedule: Q01DX001 (ip), vehicle: water)?
A: Its T/C is 114 % of control.

Q: What about the T/C (endpoint: median survival time, dose: 120.0 mg/kg/injection, schedule: Q04DX003 (ip), vehicle: saline) of the same compound?
A: The T/C was 87 % of control.

Q: Which results are given for `O=C1C2CCN(CC2)C1CN1CCC2(CC1)C(=O)NCN2c1ccccc1` (stereo unspecified)?
A: T/C (endpoint: mean survival time, dose: 50.0 mg/kg/injection, schedule: Q04DX002 (ip), vehicle: saline with Tween-80): 93 % of control; T/C (endpoint: mean survival time, dose: 100.0 mg/kg/injection, schedule: Q04DX002 (ip), vehicle: saline with Tween-80): 112 % of control

Q: For `Clc1ccc(C(=Cc2ccccc2)c2ccc(Cl)cc2)cc1`, which T/C [1] is on record?
A: Its T/C is 102 % of control.

Q: What about the T/C [4] of the same compound?
A: Its T/C is 90 % of control.

Q: What about the T/C [2] of the same compound?
A: The T/C was 93 % of control.

Q: What about the T/C [5] of the same compound?
A: Its T/C is 93 % of control.

Q: And the T/C [3]?
A: The T/C was 96 % of control.

Q: What about the T/C [6] of the same compound?
A: The T/C was 97 % of control.

Q: With `Nc1ccn(C2OC(COC(=O)C34CC5CC(CC(C5)C3)C4)C(O)C2O)c(=O)n1` (stereo unspecified) as the compound, how does the T/C (endpoint: mean survival time, dose: 12.5 mg/kg/injection, schedule: Q01DX009 (ip), vehicle: other) read?
A: Its T/C is 201 % of control.

Q: What about the T/C (endpoint: mean survival time, dose: 25.0 mg/kg/injection, schedule: Q01DX009 (ip), vehicle: other) of the same compound?
A: The T/C was 282 % of control.

Q: And the T/C (endpoint: mean survival time, dose: 50.0 mg/kg/injection, schedule: Q01DX009 (ip), vehicle: other)?
A: Its T/C is 365 % of control.

Q: And the T/C (endpoint: mean survival time, dose: 100.0 mg/kg/injection, schedule: Q01DX009 (ip), vehicle: other)?
A: Its T/C is 253 % of control.
